Structures can show the parent of a compound that is named as a salt.
How the values were obtained:
5 kbp DNA = assay: Atomic force microscopy (AFM, tapping mode) of DNA incubated with compound; conditions: 5 kbp DNA incubated with compound
Description: The DNA-bguan interaction was confirmed with UV absorption spectra. The absorption maximum and the shape of the absorbance curve of DNA changed appreciably in the presence of 1 equivalent bguan, indicating a distinct change of its structure in buffer solution. In addition, when a 5 kbp DNA was examined under the atomic force microscope (AFM) in the tapping mode, nematoid (long warm-like) formations of up to 1 μm were observed. […] This actually proves that DNA compacts not in big aggregates but in nanoparticles of size suitable to cross a cell membrane.

[1] = test system: ultrapure calf thymus DNA 13 kb; assay: DNA compaction: electrophoresis in agarose gel with ethidium bromide as stain; assay type: binding; conditions: control substances, wells B-H and b (10 λ to 1 λ diluted 1:10)
HeLa cells = assay: Cell penetration of FITC-labeled compounds by fluorescence microscopy; assay type: cell-based, human; conditions: 100 or 200 μM, 1 h incubation at 37° C.

With NCCNCC1OC2OC3C(CNCCN)OC(OC4C(CNCCN)OC(OC5C(CNCCN)OC(OC6C(CNCCN)OC(OC7C(CNCCN)OC(OC8C(CNCCN)OC(OC1C(O)C2O)C(O)C8O)C(O)C7O)C(O)C6O)C(O)C5O)C(O)C4O)C(O)C3O (stereo not drawn) [bpen, Heptakis(6-deoxy-6-aminoethylamino)-β-cyclodextrin] the “elongated (nematoid) DNA forms under AFM” value (5 kbp DNA) was “complete absence of the elongated forms” and the “diameter of round DNA nanoparticles” value (5 kbp DNA; AFM) was roughly 40 nm.

In the case of N=C(N)N [guanidine hydrochloride], the “interaction with DNA under the electrophoresis conditions” value [1] is reported as “do not display any kind of interaction with DNA”.

In the case of OC[C@H]1O[C@@H]2O[C@H]3[C@H](O)[C@@H](O)[C@@H](O[C@H]4[C@H](O)[C@@H](O)[C@@H](O[C@H]5[C@H](O)[C@@H](O)[C@@H](O[C@H]6[C@H](O)[C@@H](O)[C@@H](O[C@H]7[C@H](O)[C@@H](O)[C@@H](O[C@H]8[C@H](O)[C@@H](O)[C@@H](O[C@H]1[C@H](O)[C@H]2O)O[C@@H]8CO)O[C@@H]7CO)O[C@@H]6CO)O[C@@H]5CO)O[C@@H]4CO)O[C@@H]3CO [β-cyclodextrin], the “interaction with DNA under the electrophoresis conditions” value [1] is reported as “do not display any kind of interaction with DNA”.

In the case of “fluorescein isothiocyanate [treated FITC]”, the “fluorescence inside the cytoplasm” value (HeLa cells) is reported as “did not show any fluorescence”.

Source: US7834174B2, “Per-6-guanidino-, alkylamino-cyclodextrins, methods of their synthesis and their use for the compaction of DNA and intercellular delivery” (priority 2004, dated 2010)
